In US5296596A, “Hexahydroazepine derivatives, a process for their preparation” (ELF SANOFI, priority 1990, dated 1994):
pIC50: −log10 of the molar value.

Tests used:
sigma receptors [1] = experiment: Binding in vitro on rat cerebral membranes, ligand 3H-DTG
Description: (§1) These tests have been carried out in vitro on rat cerebral membranes using as ligands either ^3 H-(+)-3 PPP according to Largent et al., J. Phamacol. […] Acad. Sci. USA, 1986, 83, 8784-8788 and in vivo in mice with the ligand ^3 H-3 PPP according to B. Kenneth Koe et al., European J. Pharmacol., 1989, 161, 263-266.

sigma receptors [2] = molecular target: T1, sigma receptors (Rattus norvegicus, UniProt Q9R0C9); experiment: biochemical; details: binding in vitro, ligand (+)-3-PPP, rat cerebral membranes
T1 construct: in vitro on rat cerebral membranes; from tissue; host or cells: rat cerebral membranes
T1 sequence (Q9R0C9 whole entry): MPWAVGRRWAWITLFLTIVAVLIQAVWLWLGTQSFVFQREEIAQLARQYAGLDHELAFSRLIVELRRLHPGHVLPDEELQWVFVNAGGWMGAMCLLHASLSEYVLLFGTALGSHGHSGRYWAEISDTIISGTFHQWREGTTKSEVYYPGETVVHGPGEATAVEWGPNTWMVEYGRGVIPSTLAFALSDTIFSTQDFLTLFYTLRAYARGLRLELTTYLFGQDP
Description: as §1

TCP = experiment: Binding in vitro, TCP (thienylcyclohexylpiperidine); details: ligand TCP
dopaminergic receptor(s) = molecular target: T2, dopaminergic receptor(s) (Rattus norvegicus, UniProt P61169); experiment: biochemical; details: binding in vitro, ligand spiroperidol
T2 construct: from tissue; host or cells: rat brain, probably striatum (inferred from the cited methods)
T2 sequence (P61169 whole entry): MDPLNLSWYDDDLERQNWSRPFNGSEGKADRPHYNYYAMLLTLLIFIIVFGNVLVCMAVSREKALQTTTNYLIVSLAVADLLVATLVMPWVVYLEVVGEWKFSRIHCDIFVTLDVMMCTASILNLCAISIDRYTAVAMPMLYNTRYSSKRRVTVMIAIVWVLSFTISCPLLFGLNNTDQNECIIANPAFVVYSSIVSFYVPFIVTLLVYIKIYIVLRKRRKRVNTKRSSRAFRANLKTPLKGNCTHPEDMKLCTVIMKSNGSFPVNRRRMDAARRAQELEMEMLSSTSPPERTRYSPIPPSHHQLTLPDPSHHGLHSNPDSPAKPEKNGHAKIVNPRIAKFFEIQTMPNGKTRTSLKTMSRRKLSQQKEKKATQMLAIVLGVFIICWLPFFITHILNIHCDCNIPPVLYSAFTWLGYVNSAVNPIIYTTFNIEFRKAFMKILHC

sigma receptors [3] = experiment: In vivo displacement of 3H-(+)-3-PPP at the cerebral level in mice
Description: as §1

[4] = test system: hyperactivity induced by d-amphetamine; experiment: Antagonism of hyperactivity induced in mice by d-amphetamine; format: in vivo; details: predictive test for antipsychotic activity
sigma receptors [5] = experiment: Sigma receptor activity/selectivity (test not specified); format: binding; details: from Table I, versus haloperidol

pIC50 (sigma receptors [1]): 8.00
pIC50 (sigma receptors [2]): 8.10
pIC50 (TCP): < 5.00
pIC50 (dopaminergic receptor(s)): 5.00
SMILES: Cl.Clc1cc(/C=C\CN2CCCCCC2)ccc1C1CCCCC1 [Example 2, cis-3-(Hexahydroazepin-1-yl)-1-(3-chloro-4-cyclohexylphenyl)-1-propene hydrochloride]
displacement of the ligand (+)-3PPP, at the cerebral level (sigma receptors [3]): active
hyperactivity induced by d-amphetamine [4]: active
sigma impact compared with haloperidol (sigma receptors [5]): superior and/or more selective sigma impact than that of haloperidol
